Experimental data published in publication PMC6112376, “Comprehensive Analyses and Prioritization of Tox21 10K Chemicals Affecting Mitochondrial Function by in-Depth Mechanistic Studies” (Environmental Health Perspectives, 2018).
Read-outs that look alike come from different tables or passages of the source.

Tests used:
hNSC = test: MMP assay in human neural stem cells (hNSC); format: cell-based; details: for IC50: read-out: hNSC IC50 (MMP)
HepG2 cells [1] = test: Oxygen consumption, Seahorse XF24 analyzer; format: cell-based, human
[2] = test system: Nrf2/ARE (ARE-bla HepG2 cells); test: ARE β-lactamase reporter gene assay; format: cell-based, human
HepG2 cells [3] = test: Intracellular ATP content (cell viability) assay; format: cell-based, human
rat primary hepatocytes [4] = test system: rat primary hepatocytes
[5] = test system: HeLa cells expressing YFP-Parkin; test: Parkin translocation assay; format: cell-based, human
HepG2 cells [6] = test system: HepG2 cells
HepG2 cells [7] = details: cited from earlier work; for IC50: read-out: MMP assays IC50 (µM) qHTS-HepG2
rat primary hepatocytes [8] = test: MMP assay in rat primary hepatocytes
[9] = test system: isolated rat liver mitochondria; test: Oxygen consumption, Clark-type oxygen electrode; format: biochemical
[10] = test system: p53 (p53-bla HCT-116 cells); test: p53 β-lactamase reporter gene assay; format: cell-based, human
HepG2 cells [11] = test: ROS-Glo hydrogen peroxide (ROS) assay; format: cell-based, human; details: for EC50: read-out: ROS (HepG2) EC50
[12] = test system: Caenorhabditis elegans (Bristol N2); test: C. elegans larval development and growth assay
HepG2 cells [13] = test: cells; details: Homo sapiens
[14] = test system: Caenorhabditis elegans strain PE255; details: PE255 [sur-5::luc+::gfp; rol-6(su1006)], Caenorhabditis elegans, in vivo
[15] = test system: Caenorhabditis elegans strain PE255; test: In vivo C. elegans ATP status assay
[16] = test system: Caenorhabditis elegans (Bristol N2); details: Bristol N2 (wild type), Caenorhabditis elegans, in vivo
[17] = 16 h incubation, mean±SD of three experiments

CC(C)c1cccc(C(C)C)c1N1C(=O)c2ccc(O)cc2C1=O [5HPP-33]
hNSC (efficacy) (MMP) (hNSC): 12.1±1.39 ( −107±4.15 ) % | IC50 (hNSC): 12.1 µM | Activity in oxygen consumption (HepG2 cells [1]): Uncoupler+inhibitor | EC50 ([2]; 16 h incubation, mean±SD of three experiments, read-out: ARE (HepG2) EC50): 25.3 ± 1.74 µM | ARE (HepG2) (efficacy) ([2]; % of positive control): 54.9±7.97% | ATP (HepG2, galactose) (efficacy) (HepG2 cells [3]): 39.7±2.69 ( −66.5±7.10 ) % | ATP (HepG2, glucose) (efficacy) (HepG2 cells [3]): 51.2±14.4 ( −67.7±3.67 ) % | IC50 (HepG2 cells [3]; read-out: ATP (HepG2, galactose) IC50): 39.7 µM | IC50 (HepG2 cells [3]; read-out: ATP (HepG2, glucose) IC50): 51.2 µM | Rat hepatocytes (efficacy) (MMP) (rat primary hepatocytes [4]): 38.3±4.41 ( −99.8±6.08 ) % | Parkin recruitment [5]: Active | HepG2 (efficacy) Galactose (MMP) (HepG2 cells [6]): 29.4±5.02 ( −106±1.68 ) % | HepG2 (efficacy) Glucose (MMP) (HepG2 cells [6]): 20.1±3.62 ( −100±2.99 ) % | MMP assays efficacy (%) HepG2 (HepG2 cells [6]): -96% | IC50 (HepG2 cells [6]; read-out: HepG2 IC50 Galactose (MMP)): 29.4 µM | IC50 (HepG2 cells [6]; read-out: HepG2 IC50 Glucose (MMP)): 20.1 µM | IC50 (HepG2 cells [6]; read-out: MMP assays IC50 (µM) HepG2): 2.24 µM | MMP assays efficacy (%) qHTS-HepG2 (HepG2 cells [7]): -97±0% | IC50 (HepG2 cells [7]): 2.09 ± 0.87 µM | IC50 (rat primary hepatocytes [8]; read-out: MMP assays IC50 (µM) Rat Hepatocytes): 29.1 ± 12.2 µM | IC50 (rat primary hepatocytes [8]; read-out: Rat hepatocytes IC50 (MMP)): 38.3 µM | Potential Mechanism [9]: Uncoupler at low concentration (20 µM), and uncoupler + inhibitor at high concentration (100 µM) | I-ADP, % of control (O2 consumption rate) ([9]; 4 µM): 107 (52.5) % of control | I-sub, % of control (O2 consumption rate) ([9]; 4 µM): 123 (19.8) % of control | II-ADP, % of control (O2 consumption rate) ([9]; 4 µM): 89 (69.2) % of control | II-sub, % of control (O2 consumption rate) ([9]; 4 µM): 97 (29.6) % of control | I-ADP, % of control (O2 consumption rate) ([9]; 20 µM): 122 (60.3) % of control | I-sub, % of control (O2 consumption rate) ([9]; 20 µM): 296 (47.6) % of control | II-ADP, % of control (O2 consumption rate) ([9]; 20 µM): 95 (73.6) % of control | II-sub, % of control (O2 consumption rate) ([9]; 20 µM): 166 (50.8) % of control | I-ADP, % of control (O2 consumption rate) ([9]; 100 µM): 77 (41.0) % of control | I-sub, % of control (O2 consumption rate) ([9]; 100 µM): 331 (44.5) % of control | II-ADP, % of control (O2 consumption rate) ([9]; 100 µM): 51 (34.2) % of control | II-sub, % of control (O2 consumption rate) ([9]; 100 µM): 200 (43.4) % of control | EC50 [10, 17]: 1730 ± 190 nM | p53 (HCT-116) (efficacy) ([10]; % of positive control): 76.9±9.78% | ROS (HepG2) (efficacy) (HepG2 cells [11]): 37.1±2.42 ( 37.6±1.63 ) % | EC50 (HepG2 cells [11]): 37.1 µM

O=C1c2ccccc2C(=O)C1C(=O)C(c1ccccc1)c1ccc(Cl)cc1 (stereo not drawn) [Chlorophacinone]
EXT: mean difference in nematode size relative to plate controls ([12]; 0.5 µM): 0.2337 | EXT: mean difference in nematode size relative to plate controls ([12]; 1 µM): 0.388 | EXT: mean difference in nematode size relative to plate controls ([12]; 5 µM): 0.7901 | EXT: mean difference in nematode size relative to plate controls ([12]; 10 µM): 1.11 | EXT: mean difference in nematode size relative to plate controls ([12]; 25 µM): 1.457 | EXT: mean difference in nematode size relative to plate controls ([12]; 50 µM): 1.812 | EXT: mean difference in nematode size relative to plate controls ([12]; 75 µM): 1.667 | EXT: mean difference in nematode size relative to plate controls ([12]; 100 µM): 1.868 | minimal effective concentration ([12]; Caenorhabditis elegans, read-out: LEC EXT: lowest effect concentration for extinction, a measure of nematode size): 1 µM | IC50 (hNSC; Homo sapiens, Neural stem cell, 1 h): 12.6 µM | ARE (HepG2) EC50 [2, 17]: Inactive | IC50 (HepG2 cells [13]; HepG2, 1 h, read-out: HepG2 IC50 Galactose (MMP)): 46.3 µM | IC50 (HepG2 cells [13]; HepG2, 1 h, read-out: HepG2 IC50 Glucose (MMP)): 27.1 µM | IC50 (HepG2 cells [13]; HepG2, read-out: MMP assays IC50 (µM) HepG2): 3.55 µM | Emax (HepG2 cells [13]; HepG2, read-out: MMP assays efficacy (%) HepG2): 109% | IC50 (HepG2 cells [3]; Homo sapiens, HepG2, 40 h, read-out: ATP (HepG2, galactose) IC50): 41.4 µM | IC50 (HepG2 cells [3]; Homo sapiens, HepG2, 40 h, read-out: ATP (HepG2, glucose) IC50): 48.2 µM | LEC (lowest effect concentration), ATP assay [14]: < 10 µM | MMP assays efficacy (%) Rat Hepatocytes (rat primary hepatocytes [4]): -86±11% | Rat hepatocytes (efficacy) (MMP) (rat primary hepatocytes [4]): 10.5±4.28 ( −97.8±13.3 ) % | Parkin recruitment [5]: Inactive | LUM: mean difference in luminescence (ATP content) relative to plate controls ([15]; 0.5 µM): 0.2858 | LUM: mean difference in luminescence (ATP content) relative to plate controls ([15]; 1 µM): 0.2624 | LUM: mean difference in luminescence (ATP content) relative to plate controls ([15]; 5 µM): 0.9157 | LUM: mean difference in luminescence (ATP content) relative to plate controls ([15]; 10 µM): 0.9688 | LUM: mean difference in luminescence (ATP content) relative to plate controls ([15]; 25 µM): 0.9113 | LUM: mean difference in luminescence (ATP content) relative to plate controls ([15]; 50 µM): 1.406 | LUM: mean difference in luminescence (ATP content) relative to plate controls ([15]; 75 µM): 1.423 | LUM: mean difference in luminescence (ATP content) relative to plate controls ([15]; 100 µM): 1.347 | minimal effective concentration ([15]; Caenorhabditis elegans, read-out: LEC LUM: lowest effect concentration for luminescence, a measure of nematode ATP content): 5 µM | LEC (lowest effect concentration), larval growth assay [16]: < 10 µM | MMP assays efficacy (%) qHTS-HepG2 (HepG2 cells [7]): -103±9% | IC50 (HepG2 cells [7]): 0.64 ± 0.25 µM | IC50 (rat primary hepatocytes [8]; Rattus norvegicus, Hepatocyte, 1 h, read-out: Rat hepatocytes IC50 (MMP)): 10.5 µM | IC50 (rat primary hepatocytes [8]; Rattus norvegicus, Hepatocyte, read-out: MMP assays IC50 (µM) Rat Hepatocytes): 4.65 ± 4.78 µM | Potential Mechanism [9]: Uncoupler at low concentrations (0.8-4 µM), and Uncoupler + inhibitor at high concentrations (20 -100 µM) | I-ADP, % of control (O2 consumption rate) ([9]; 0.16 µM): 104 (45.2) % of control | I-sub, % of control (O2 consumption rate) ([9]; 0.16 µM): 112 (14.7) % of control | II-ADP, % of control (O2 consumption rate) ([9]; 0.16 µM): 97 (66.0) % of control | II-sub, % of control (O2 consumption rate) ([9]; 0.16 µM): 97 (20.2) % of control | I-ADP, % of control (O2 consumption rate) ([9]; 0.8 µM): 95 (41.2) % of control | I-sub, % of control (O2 consumption rate) ([9]; 0.8 µM): 111 (14.5) % of control | II-ADP, % of control (O2 consumption rate) ([9]; 0.8 µM): 107 (72.3) % of control | II-sub, % of control (O2 consumption rate) ([9]; 0.8 µM): 125 (26.1) % of control | I-ADP, % of control (O2 consumption rate) ([9]; 4 µM): 97 (42.2) % of control | I-sub, % of control (O2 consumption rate) ([9]; 4 µM): 182 (23.9) % of control | II-ADP, % of control (O2 consumption rate) ([9]; 4 µM): 87 (58.8) % of control | II-sub, % of control (O2 consumption rate) ([9]; 4 µM): 203 (42.5) % of control | I-ADP, % of control (O2 consumption rate) ([9]; 20 µM): 72 (31.3) % of control | I-sub, % of control (O2 consumption rate) ([9]; 20 µM): 285 (37.3) % of control | II-ADP, % of control (O2 consumption rate) ([9]; 20 µM): 39 (26.3) % of control | II-sub, % of control (O2 consumption rate) ([9]; 20 µM): 150 (31.3) % of control | I-ADP, % of control (O2 consumption rate) ([9]; 100 µM): 21 (11.4) % of control | I-sub, % of control (O2 consumption rate) ([9]; 100 µM): 110 (14.8) % of control | II-ADP, % of control (O2 consumption rate) ([9]; 100 µM): 15 (9.9) % of control | II-sub, % of control (O2 consumption rate) ([9]; 100 µM): 61 (13.1) % of control | p53 (HCT-116) EC50 [10, 17]: Inactive | EC50 (HepG2 cells [11]; Homo sapiens, HepG2, 2 h): 41.7 µM
